ChEMBL document CHEMBL1125758, “(Acyloxy)alkyl carbamate prodrugs of norfloxacin” (J Med Chem, 1991)
≈ marks a conversion by molar mass, not a printed value. Values belong to the compound of their own block, whether it stands above or below them.

Columns and labels:
[1] = Solubility in citrate buffer (0.1 M) at 25 degree centigrade(pH 5); type: physicochemical; settings: for solubility: citrate buffer, read-out: S
[2] = Solubility in phosphate buffer (0.1 M) at 25 degree centigrade(pH 7.4); type: physicochemical
[3] = Half life in a medium of dog serum.; type: ADME, organism-based, Canis lupus familiaris
[4] = Half life in a medium of rat serum.; type: ADME, organism-based
[5] = Solubility in bicarbonate buffer (0.05 M) at 25 degree centigrade(pH 8.5); type: physicochemical; settings: read-out: S
[6] = Solubility in water at 25 degree Centigrade; type: physicochemical; settings: read-out: S
[7] = Half life in a medium of human serum.; type: ADME, organism-based
[8] = Half life in a medium of rat intestinal homogenate.; type: ADME
Enterobacter cloacae [9] = test: Antibacterial activity against Ent. cloacae 99+(2646); type: functional; settings: P99
Enterobacter cloacae [10] = test: Antibacterial activity against Ent. cloacae P99-(2647); type: functional
Klebsiella aerogenes [11] = test: Antibacterial activity against Ent. aerogenes(2828); type: functional
Escherichia coli [12] = test: Antibacterial activity against Escherichia coli (2891); type: functional
Escherichia coli [13] = test: Antibacterial activity against Escherichia coli DC2(4353); type: functional
Escherichia coli [14] = test: Antibacterial activity against Escherichia coli TEM 2+ DC2(4352); type: functional
Escherichia coli [15] = test: Antibacterial activity against Escherichia coli TEM 2+(4351); type: functional
Klebsiella pneumoniae [16] = test: Antibacterial activity against Klebsiella pneumoniae (4005); type: functional
Klebsiella pneumoniae [17] = test: Antibacterial activity against Klebsiella pneumoniae K1+(4354); type: functional
Rhesus monkey [18] = test: (§1) Serum conc at 3 hours following 25 mg/kg dose; type: functional, Macaca mulatta
Rhesus monkey [19] = test: (§2) Urine conc 0-5 hours following 25 mg/kg dose; type: functional, Macaca mulatta
Rhesus monkey [20] = test: Urine conc 0-24 hours following 25mg/kg dose; type: functional, Macaca mulatta
Monkey = test: % dose recovered in urine; type: functional, Cercopithecidae
Proteus vulgaris [21] = test: Antibacterial activity against Prot. vulgaris(2829); type: functional
Proteus mirabilis [22] = test: Antibacterial activity against Prot. mirabilis GmR(2830); type: functional
Pseudomonas aeruginosa [23] = test: Antibacterial activity against Ps. aeruginoa(2835); type: functional
Pseudomonas aeruginosa [24] = test: Antibacterial activity against Ps. aeruginoa(4279); type: functional
Pseudomonas aeruginosa [25] = test: Antibacterial activity against Ps. aeruginosa RPL11+(3350); type: functional
Morganella morganii [26] = test: Antibacterial activity against Prot. morganii SmR(2833); type: functional
Salmonella typhimurium = test: Antibacterial activity against Sal. Typhimurium (3860); type: functional, Salmonella enterica subsp. enterica serovar Typhimurium; settings: Salmonella enterica
Serratia marcescens = test: Antibacterial activity against Ser. marcescens (2840); type: functional
Staphylococcus aureus [27] = test: Antibacterial activity against Staphylococcus aureus (2865); type: functional
Staphylococcus aureus [28] = test: Antibacterial activity against Staphylococcus aureus (2868); type: functional
Staphylococcus aureus [29] = test: Antibacterial activity against Staphylococcus aureus GmR Meth(4310); type: functional
Streptococcus sp. = test: Antibacterial activity against Strep. Faecalis (2864); type: functional
[30] = Half life in a medium of phosphate buffer in pH 7.4; type: ADME
[31] = as §1; type: ADME, organism-based, Macaca mulatta; parameters: dose 25 mg/kg; settings: rhesus monkey, read-out: Concentration_plasma
[32] = as §2; type: ADME, organism-based, Macaca mulatta; parameters: dose 25 mg/kg; settings: rhesus monkey, in vivo
[33] = Urine conc 0-24 hours following 25 mg/kg dose; type: ADME, organism-based, Macaca mulatta; parameters: dose 25 mg/kg; settings: rhesus monkey, in vivo
Klebsiella aerogenes [34] = test: Antibacterial activity against Ent. aerogenes (2828); type: functional
Enterobacter cloacae [35] = test: Antibacterial activity against Ent. cloacae 99+ (2646); type: functional; settings: P99
Enterobacter cloacae [36] = test: Antibacterial activity against Ent. cloacae P99- (2647); type: functional
Escherichia coli [37] = test: Antibacterial activity against Escherichia coli DC2 (4353); type: functional
Escherichia coli [38] = test: Antibacterial activity against Escherichia coli TEM 2+ (4351); type: functional
Escherichia coli [39] = test: Antibacterial activity against Escherichia coli TEM 2+ DC2 (4352); type: functional
Klebsiella pneumoniae [40] = test: Antibacterial activity against Klebsiella pneumoniae K1+ (4354); type: functional
Proteus vulgaris [41] = test: Antibacterial activity against Prot. vulgaris (2829); type: functional
Morganella morganii [42] = test: Antibacterial activity against Prot. morganii SmR (2833); type: functional
Proteus mirabilis [43] = test: Antibacterial activity against Prot. mirabilis GmR (2830); type: functional
Pseudomonas aeruginosa [44] = test: Antibacterial activity against Ps. aeruginosa (2835); type: functional
Pseudomonas aeruginosa [45] = test: Antibacterial activity against Ps. aeruginosa (4279); type: functional
Pseudomonas aeruginosa [46] = test: Antibacterial activity against Ps. aeruginosa RPL11+ (3350); type: functional
Staphylococcus aureus [47] = test: Antibacterial activity against Staphylococcus aureus GmR Meth (4310); type: functional
Enterococcus faecalis = test: Antibacterial activity against Strep. faecalis (2864); type: functional

solubility [1]: 30 µg/mL (≈ 66.8 µM) | solubility [2]: 60 µg/mL (≈ 134 µM) | half-life [3]: 6 min | half-life [4]: 1.5 min | solubility [5]: 150 µg/mL (≈ 334 µM)
SMILES: CCn1cc(C(=O)O)c(=O)c2cc(F)c(N3CCN(C(=O)OC(C)OC(C)=O)CC3)cc21 (centres undefined)

solubility [1]: 5 µg/mL (≈ 11.5 µM) | solubility [2]: 50 µg/mL (≈ 115 µM) | solubility [6]: 60 µg/mL (≈ 138 µM) | half-life [3]: 6 min | half-life [7]: 116 min | half-life [8]: 2.6 min | half-life [4]: 1.5 min | MIC (Enterobacter cloacae [9]): > 128 µg/mL | MIC (Enterobacter cloacae [10]): > 128 µg/mL | MIC (Klebsiella aerogenes [11]): > 128 µg/mL | MIC (Escherichia coli [12]): 128 µg/mL (≈ 294 µM) | MIC (Escherichia coli [13]): > 128 µg/mL | MIC (Escherichia coli [14]): > 128 µg/mL | MIC (Escherichia coli [15]): > 128 µg/mL | MIC (Klebsiella pneumoniae [16]): 32 µg/mL (≈ 73.5 µM) | MIC (Klebsiella pneumoniae [17]): > 128 µg/mL | MIC (Proteus vulgaris [21]): > 128 µg/mL | MIC (Proteus mirabilis [22]): > 128 µg/mL | MIC (Pseudomonas aeruginosa [23]): > 128 µg/mL | MIC (Pseudomonas aeruginosa [24]): > 128 µg/mL | MIC (Pseudomonas aeruginosa [25]): > 128 µg/mL | MIC (Morganella morganii [26]): 8 µg/mL (≈ 18.4 µM) | MIC (Salmonella typhimurium): > 128 µg/mL | MIC (Serratia marcescens): > 128 µg/mL | MIC (Staphylococcus aureus [27]): 2 µg/mL (≈ 4.59 µM) | MIC (Staphylococcus aureus [28]): 1 µg/mL (≈ 2.3 µM) | MIC (Staphylococcus aureus [29]): 2 µg/mL (≈ 4.59 µM) | MIC (Streptococcus sp.): > 128 µg/mL | solubility [5]: 410 µg/mL (≈ 942 µM) | half-life [30]: 128 h
SMILES: CCn1cc(C(=O)O)c(=O)c2cc(F)c(N3CCN(C(=O)OCOC(C)=O)CC3)cc21
Concentration_plasma (Rhesus monkey [18]): 0.36 µg/mL | Concentration_urine (Rhesus monkey [19]): 25.03 µg/mL | Concentration_urine (Rhesus monkey [20]): 21.97 µg/mL | Dose (Monkey): 7.23%

SMILES: CCn1cc(C(=O)O)c(=O)c2cc(F)c(N3CCNCC3)cc21 [NORFLOXACIN]
concentration at 3 h [31]: 760 ng/mL | Concentration_urine [32]: 175860 ng/mL | Concentration_urine [33]: 33780 ng/mL | S ([1]; buffer): 8 mg/mL | solubility [2]: 200 µg/mL (≈ 626 µM) | solubility [6]: 190 µg/mL (≈ 595 µM) | MIC (Klebsiella aerogenes [34]): 0.5 µg/mL (≈ 1.57 µM) | MIC (Enterobacter cloacae [35]): 1 µg/mL (≈ 3.13 µM) | MIC (Enterobacter cloacae [36]): 0.25 µg/mL (≈ 0.783 µM) | MIC (Escherichia coli [37]): 0.5 µg/mL (≈ 1.57 µM) | MIC (Escherichia coli [38]): 0.03 µg/mL (≈ 0.0939 µM) | MIC (Escherichia coli [38]; Escherichia coli, read-out: MIC): 0.03 µg/mL (≈ 0.0939 µM) | MIC (Escherichia coli [39]): 0.5 µg/mL (≈ 1.57 µM) | MIC (Escherichia coli [12]): 0.06 µg/mL (≈ 0.188 µM) | MIC (Klebsiella pneumoniae [16]): 0.06 µg/mL (≈ 0.188 µM) | MIC (Klebsiella pneumoniae [40]): 8 µg/mL (≈ 25.1 µM) | Dose (Monkey): 16.3% | MIC (Proteus vulgaris [41]): 0.06 µg/mL (≈ 0.188 µM) | MIC (Morganella morganii [42]): 0.06 µg/mL (≈ 0.188 µM) | MIC (Proteus mirabilis [43]): 0.06 µg/mL (≈ 0.188 µM) | MIC (Pseudomonas aeruginosa [44]): 1 µg/mL (≈ 3.13 µM) | MIC (Pseudomonas aeruginosa [45]): 1 µg/mL (≈ 3.13 µM) | MIC (Pseudomonas aeruginosa [46]): 1 µg/mL (≈ 3.13 µM) | MIC (Salmonella typhimurium): 0.5 µg/mL (≈ 1.57 µM) | MIC (Serratia marcescens): 4 µg/mL (≈ 12.5 µM) | MIC (Staphylococcus aureus [47]): 1 µg/mL (≈ 3.13 µM) | MIC (Staphylococcus aureus [27]): 0.25 µg/mL (≈ 0.783 µM) | MIC (Staphylococcus aureus [28]): 1 µg/mL (≈ 3.13 µM) | MIC (Enterococcus faecalis): 8 µg/mL (≈ 25.1 µM) | solubility [5]: 210 µg/mL (≈ 658 µM)
